In ChEMBL document CHEMBL1201862, “PubChem BioAssay data set” (2004):
Active and inactive are the calls of the source. Cut-off read from the data, not from the text of the source, for most assays here: actives have a measured EC50 and inactives only a lower limit.

How the values were obtained:
[1] = molecular target: T1, Protein skinhead-1 (Caenorhabditis elegans, UniProt P34707); type: functional
T1 sequence (P34707 whole entry): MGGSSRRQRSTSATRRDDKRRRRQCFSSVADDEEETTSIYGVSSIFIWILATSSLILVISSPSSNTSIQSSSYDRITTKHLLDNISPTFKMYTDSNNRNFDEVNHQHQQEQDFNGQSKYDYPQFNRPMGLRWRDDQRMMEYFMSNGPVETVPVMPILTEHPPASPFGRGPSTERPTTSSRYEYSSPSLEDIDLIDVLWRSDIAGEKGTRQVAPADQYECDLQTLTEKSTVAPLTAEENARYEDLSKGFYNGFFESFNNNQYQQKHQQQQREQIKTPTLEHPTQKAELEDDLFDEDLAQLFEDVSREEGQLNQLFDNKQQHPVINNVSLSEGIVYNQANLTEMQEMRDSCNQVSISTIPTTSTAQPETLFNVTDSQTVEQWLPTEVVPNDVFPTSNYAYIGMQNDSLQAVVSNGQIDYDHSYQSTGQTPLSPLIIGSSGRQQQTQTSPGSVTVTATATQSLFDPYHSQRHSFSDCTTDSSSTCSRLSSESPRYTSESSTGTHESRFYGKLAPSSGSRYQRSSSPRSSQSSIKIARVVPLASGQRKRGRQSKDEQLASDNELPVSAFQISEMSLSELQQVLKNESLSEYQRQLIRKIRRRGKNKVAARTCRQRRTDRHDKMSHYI

[2] = molecular target: T2, Heat shock factor protein 1 (Mus musculus, UniProt P38532); test: inhibition of MG132-induced HSE-luciferase signal, confirmation, cell-based, NIH3T3, luminescence, dose retest (AID 2382); type: functional;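 note: NIH3T3 fibroblasts with HSF1-driven luciferase reporter stressed by proteasome inhibitor MG132; luminescence from HSF1-driven luciferase expression after 8 hours of MG132 stress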
T2 sequence (P38532 whole entry): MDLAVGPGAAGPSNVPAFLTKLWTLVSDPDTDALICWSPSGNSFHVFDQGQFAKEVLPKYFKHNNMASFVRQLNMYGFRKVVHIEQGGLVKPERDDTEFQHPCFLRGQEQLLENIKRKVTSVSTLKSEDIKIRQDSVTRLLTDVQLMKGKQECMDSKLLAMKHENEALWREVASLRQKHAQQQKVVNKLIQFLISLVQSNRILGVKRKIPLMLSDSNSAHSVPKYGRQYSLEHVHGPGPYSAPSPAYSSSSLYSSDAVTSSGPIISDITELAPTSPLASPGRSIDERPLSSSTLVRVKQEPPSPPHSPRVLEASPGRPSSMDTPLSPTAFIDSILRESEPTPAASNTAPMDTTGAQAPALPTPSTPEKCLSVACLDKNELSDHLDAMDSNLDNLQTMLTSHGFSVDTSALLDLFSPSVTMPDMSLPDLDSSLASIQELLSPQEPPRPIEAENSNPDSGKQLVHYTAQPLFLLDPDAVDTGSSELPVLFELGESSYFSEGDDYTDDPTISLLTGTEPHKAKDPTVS

[3] = cytotoxicity toward NIH3T3 fibroblasts, dose response, counter-screen, cell-based, ATP luminescence, mouse fibroblasts (AID 2010); type: functional;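 note: cells exposed to compound for about 90 hours before reading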
[4] = inhibitors of intracellular T. cruzi replication, confirmation, NIH3T3 host cells, beta-gal luminescence (AID 2044); type: functional, cell-based;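 note: intracellular parasites grown in NIH/3T3 mouse fibroblasts as host cells; luminescent beta-galactosidase reporter signal from transgenic T. cruzi replicating inside host cells; inhibitors lower the luminescence signal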
[5] = molecular target: T3, Calpain-2 catalytic subunit (Sus scrofa, UniProt P43367); test: pig calpain II inhibitor potency, dose response, biochemical, fluorogenic peptide substrate (AID 1420); type: functional
T3 sequence (P43367 whole entry): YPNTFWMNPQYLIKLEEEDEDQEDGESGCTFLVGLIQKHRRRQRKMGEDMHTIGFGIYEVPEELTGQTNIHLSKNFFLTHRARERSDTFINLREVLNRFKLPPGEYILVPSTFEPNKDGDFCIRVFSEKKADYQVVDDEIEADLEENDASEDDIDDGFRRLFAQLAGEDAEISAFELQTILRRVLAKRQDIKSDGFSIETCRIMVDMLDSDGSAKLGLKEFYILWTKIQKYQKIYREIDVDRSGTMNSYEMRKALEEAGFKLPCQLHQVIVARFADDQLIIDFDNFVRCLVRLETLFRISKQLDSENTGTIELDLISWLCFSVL

[6] = molecular target: T4, Streptokinase A (Streptococcus pyogenes serotype M1, UniProt P10520); test: S. pyogenes streptokinase expression inhibitors, potency, dose response, plasminogen activation absorbance, OD405 (AID 1914); type: functional, Streptococcus pyogenes M1 GAS;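 note: secreted streptokinase activity via plasminogen activation per viability signal from cell pellet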
T4 sequence (P10520 whole entry): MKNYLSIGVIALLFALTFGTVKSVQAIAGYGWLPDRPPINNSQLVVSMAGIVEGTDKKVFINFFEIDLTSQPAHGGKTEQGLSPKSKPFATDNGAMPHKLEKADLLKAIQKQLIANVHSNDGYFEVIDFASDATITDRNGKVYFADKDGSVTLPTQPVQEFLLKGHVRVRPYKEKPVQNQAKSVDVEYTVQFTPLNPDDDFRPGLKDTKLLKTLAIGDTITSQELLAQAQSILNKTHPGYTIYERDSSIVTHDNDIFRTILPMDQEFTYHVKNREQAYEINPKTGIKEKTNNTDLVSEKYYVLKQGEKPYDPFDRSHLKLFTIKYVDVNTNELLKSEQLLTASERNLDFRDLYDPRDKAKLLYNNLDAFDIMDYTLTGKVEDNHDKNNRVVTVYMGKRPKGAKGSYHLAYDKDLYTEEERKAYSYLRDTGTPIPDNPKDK

[7] = test system: Streptococcus; test: Group A Streptococcus viability loss, dose response, counter-screen for streptokinase expression inhibitor project, luminescence, BacTiterGlo (AID 1915); type: functional, organism-based;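 note: potency for reduction of bacterial viability or growth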
[8] = test system: Streptococcus sp. 'group A'; test: growth inhibition of control SK(-) GAS strain, dose response, counter-screen for streptokinase expression inhibitor project, luminescence, kanamycin, BacTiterGlo, confirmation (AID 1900); type: functional, organism-based
[9] = Luminescence Cell-Based Dose Response HTS to Identify Activators of Luciferase Translation or Activity in H4 […] Cells. [Related pubchem assays: 1829 (Project Summary), 1814 (Primary HTS)]; type: functional
[10] = Luminescence Cell-Based Dose Confirmation HTS to Identify Activators of 5'UTR Stem-Loop Driven Alpha-Synuclein mRNA Translation in H4 Neuroglioblastoma Cells. [Related pubchem assays: 1829 (Project Summary), 1814 (Primary HTS)]; type: functional
[11] = test system: H4; test: Luminescence Cell-Based Dose Response HTS to Identify Activators of 5'UTR Stem-Loop Driven Prion Protein mRNA Translation in H4 Neuroglioblastoma Cells. [Related pubchem assays: 1829 (Project Summary), 1814 (Primary HTS)]; type: functional; conditions: Homo sapiens
[12] = HEp-2 cell cytotoxicity, dose response, cytotoxicity control for RSV inhibitor project, HTS (AID 2410); type: functional; conditions: human respiratory syncytial virus
[13] = Luminescence Cell-Based Dose Retest to Confirm Inhibitors of Cancer Stem Cells. [Related pubchem assays (depositor defined):AID2717, AID2721]; type: functional; conditions: Homo sapiens
[14] = molecular target: Paired box protein Pax-8 (Homo sapiens, UniProt Q06710); test: inhibitors of PAX8-driven TPO luciferase reporter, dose response, RMG-I cells, cherry-pick (AID 687027); type: functional, cell-based;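 note: luciferase reporter driven by Pax8 target thyroperoxidase promoter measured by SteadyGlo luminescence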
Paired box protein Pax-8, sequence (Q06710 whole entry, the tested form may be a part): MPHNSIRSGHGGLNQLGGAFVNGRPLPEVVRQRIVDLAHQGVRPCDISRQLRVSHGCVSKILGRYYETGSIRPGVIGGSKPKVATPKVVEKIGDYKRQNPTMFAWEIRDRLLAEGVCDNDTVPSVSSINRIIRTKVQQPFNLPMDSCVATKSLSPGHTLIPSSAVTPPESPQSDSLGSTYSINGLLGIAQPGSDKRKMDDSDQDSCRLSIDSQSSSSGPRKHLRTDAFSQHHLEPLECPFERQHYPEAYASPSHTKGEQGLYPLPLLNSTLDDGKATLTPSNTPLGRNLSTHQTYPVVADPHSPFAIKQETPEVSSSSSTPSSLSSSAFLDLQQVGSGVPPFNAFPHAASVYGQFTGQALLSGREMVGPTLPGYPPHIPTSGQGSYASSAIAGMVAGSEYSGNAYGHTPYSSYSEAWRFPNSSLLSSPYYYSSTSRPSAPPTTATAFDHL

[15] = inhibitors of clade B AD8 Env fusion, dose response, cell-based, cherry-pick (AID 652062); type: functional;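 note: luciferase signal from cell-cell fusion driven by HIV-1 clade B AD8 Env; potency is for inhibitors of fusion seen as a drop in luminescence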
[16] = P. falciparum Dd2 growth inhibitors, dose response, SYBR Green, cherry-picked samples (AID 1159567); type: functional, cell-based

Cc1cccc(C#Cc2ccccc2)n1
IC50 [1]: > 100 µM (inactive)

COc1cccc(/C=C/C(=O)NCc2ccc3c(c2)OCO3)c1
EC50 [2]: > 195 µM (not active)

CCN(CC)C(=O)c1ccc(-c2ccccc2)cc1
EC50 [2]: > 195 µM (not active)

O=C(NCCC1=CCCCC1)c1ccc2c(c1)N(Cc1ccccc1)C(=O)CS2
EC50 [3]: > 30 µM (not active) | EC50 [4]: 2.88 µM (active) | IC50 [5]: 5.5 µM (not active)

CCc1ccccc1NC(=O)c1ccc(NS(C)(=O)=O)cc1
EC50 [2]: > 195 µM (not active)

COc1cc(C(=O)OCC(=O)c2c(N)n(C)c(=O)n(C)c2=O)ccc1OCCC(C)C
EC50 [6]: > 150 µM (not active) | EC50 [7]: > 150 µM (not active) | EC50 [8]: 12.7 µM (active)

CN1C(=O)/C(=C\c2ccccc2F)Sc2ccc(C(=O)NC3CCN(Cc4ccccc4)CC3)cc21
EC50 [6]: > 150 µM (not active) | EC50 [3]: > 60 µM (not active) | EC50 [7]: 41.8 µM (active) | EC50 [8]: 7.12 µM (active) | EC50 [4]: 0.243 µM (active)

Cc1ccccc1N=C(S)N(CCc1c(C)[nH]c2ccc(F)cc12)Cc1cccnc1
IC50 [5]: > 50 µM (not active)

CC(C)(C)C1CC=C2C(C#N)=C(N)C(C#N)(C#N)C(c3cccs3)C2C1 (centres undefined)
EC50 [6]: 25.7 µM (active) | EC50 [7]: > 150 µM (not active) | EC50 [8]: 14.9 µM (active)

CCOC(=O)N1CCN(c2ncnc3c2cnn3-c2ccc(OC)cc2)CC1
IC50 [1]: > 100 µM (inactive)

CS(=O)(=O)N(CC(=O)O)c1ccc(C23CC4CC(CC(C4)C2)C3)cc1
EC50 [2]: > 195 µM (not active)

Clc1ccc(C#Cc2cccnc2)cc1
EC50 [9]: 24.1 µM (active) | IC50 [1]: 12.6 µM (active) | EC50 [10]: 17.4 µM (active) | EC50 [11]: 1.73 µM (active)

N#CCc1ccc(NC(=O)Nc2cccc3ccccc23)cc1
EC50 [2]: > 195 µM (not active)

CC(C)c1ccc(-n2cccc2/C=C2/C(=N)N3C=CSC3=NC2=O)cc1
EC50 [6]: > 150 µM (not active) | EC50 [7]: 14.7 µM (active) | EC50 [8]: 2.1 µM (active)

O=C1CC(C(=O)Nc2ccc(Cl)cc2)n2ncnc2N1 (centres undefined)
IC50 [5]: < 0.4 µM (not active)

Cc1cc2ccccc2n1CCNC(=O)COc1ccc2ccccc2c1
CC50 [12]: 21.4 µM (active)

CC(CCc1ccccc1)NC(=O)CSc1cccc[n+]1[O-] (centres undefined)
IC50 [5]: 44.7 µM (not active)

Fc1ccc(CSc2nc3ccccc3[nH]2)c2ccccc12
EC50 [6]: 14.1 µM (active) | AC50 [13]: 5.37 µM (active) | EC50 [7]: 13.9 µM (active) | EC50 [8]: 8.67 µM (active) | IC50 [5]: 2.61 µM (not active)

CSc1ccc(CN(C)CC(=O)Nc2c(F)cccc2F)cc1
IC50 [5]: 2.25 µM (not active)

CCn1c(S(=O)(=O)O)nc2ccccc21
EC50 [2]: > 195 µM (not active)

Cc1c(C(=O)N(C)c2ccc(Cl)cc2)cnn1-c1ccccc1
IC50 [1]: > 100 µM (inactive)

C=CCn1c(N2C(=O)CC(Cc3ccccc3)C2=O)nc2ccccc21 (centres undefined)
EC50 [6]: > 150 µM (not active) | EC50 [7]: > 150 µM (not active) | EC50 [8]: 9.02 µM (active)

CCOC(=O)N1CCc2c(sc3c2c(=O)n(Cc2ccccc2)c(=O)n3CC(=O)NCCOC)C1
IC50 [5]: 7.05 µM (not active)

N#C/C(=C\c1ccco1)Sc1nc2ccccc2s1
EC50 [9]: 11.8 µM (active) | IC50 [1]: > 100 µM (inactive) | EC50 [10]: 13.9 µM (active) | EC50 [11]: 25.6 µM (active)

CC(C)(C)NC1=NN=C(c2ccc(Cl)cc2)CS1
IC50 [1]: 13.9 µM (active)

Cc1ccnn2c(-c3ccccc3)c3c(=O)n(C)c(=O)n(C)c3c12
EC50 [6]: > 150 µM (not active) | EC50 [7]: > 150 µM (not active) | EC50 [8]: > 150 µM (not active)

CC(=O)c1cn(CC(=O)Nc2ccccc2C)c2ccccc12
EC50 [2]: > 195 µM (not active)

CCCCSc1nnc(-c2ccc(C)cc2)c2ccccc12
IC50 [5]: 5.25 µM (not active)

Cc1ccc(NC(=O)c2ccc(F)cc2F)cc1
IC50 [1]: 79 µM (inactive)

Cc1ccc(N(CC(=O)NCC2CCCO2)S(=O)(=O)c2ccc(Cl)cc2)cc1C (centres undefined)
IC50 [1]: > 100 µM (inactive)

Oc1ccc(C[C@H]2CN([C@@H](Cc3ccc(O)cc3)CN3CCC[C@@H]3CN3C(=S)NC[C@@H]3Cc3ccccc3)C(=S)N2CC2CCCCCC2)cc1
AC50 [14]: 9.27 µM (active)

Cc1ccc(NC(=O)CSc2nc(N)cc(O)n2)cc1S(=O)(=O)N1CCCCCC1
IC50 [1]: > 100 µM (inactive)

C[C@H]1CN([C@@H](C)CO)C(=O)c2cccc(NC(=O)Nc3ccc(F)cc3)c2O[C@H]1CN(C)C(=O)Nc1ccc(C(F)(F)F)cc1
AC50 [14]: 13.1 µM (active)

O=C(C[C@H]1C[C@@H]2c3cc(NC(=O)C4CCOCC4)ccc3O[C@@H]2[C@H](CO)O1)NCc1ccccc1
AC50 [15]: 2.09 µM (active)

C[C@@H]1CN([C@@H](C)CO)C(=O)c2c(c3ccccc3n2C)-c2ccccc2CO[C@H]1CN(C)C(=O)Nc1ccc2c(c1)OCO2
AC50 [14]: 5.68 µM (active)

OC[C@@H]1CC[C@@H]2O[C@H](CCc3ccc(-c4ccc(F)cc4)cc3)[C@H](n3cc(C4CC4)nn3)C[C@@H]2O1
AC50 [16]: 7.67 µM (active)

N#C[C@@H]1[C@H](c2ccccc2-c2cccc(F)c2)[C@H](CO)N1C(=O)C1CC1
AC50 [16]: 3.48 µM (active)

COCC#Cc1ccc(CC[C@H]2O[C@H]3CC[C@@H](CO)O[C@H]3C[C@@H]2n2cc(C3CC3)nn2)cc1
AC50 [16]: 5.82 µM (active)

CCC(=O)N1CCC2(CC1)CN(Cc1ccc3c(c1)OCO3)[C@@H](CO)c1c2c2ccc(OC)cc2n1C
AC50 [16]: 4.05 µM (active)

CN1c2ccc(C#Cc3cccnc3)cc2[C@@H]2[C@@H](CCN2C(=O)C2CCC2)[C@@H]1CO
AC50 [16]: 4.18 µM (active)

COc1cc(C(=O)NS(=O)(=O)c2ccccc2C)ccc1Cc1cn(C)c2ccc(NC(=O)OC3CCCC3)cc12 [ZAFIRLUKAST]
EC50 [6]: > 50 µM (not active) | EC50 [7]: > 50 µM (not active) | EC50 [8]: 0.936 µM (active)
